Assay type in all cases: cell-based, human
The subject of one assay is SMN2 mRNA. As to the kind of experiment: RT-qPCR splicing assay, SMN2 canonical junction (CJ) mRNA. The note with it: Homo sapiens; Table 5 panel; canonical junction qPCR; compound concentration having 50% response in CJ decrease; read-out: SMN2 IC50 (decrease in CJ mRNA levels). The gist of the method:
(§1)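 Read-out is canonical exon-exon junction mRNA quantified by RT-qPCR against a GAPDH, GUSB or PPIA control. Cells (A673 or K562) received compound for 24 h, top final dose 10 uM in an 11-point 3-fold series.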
On the technique in general: Quantitative PCR measures a nucleic acid by following its amplification.

Assay [1] deals with Target C. The assay is described as follows: RT-qPCR splicing assay panel, Target C canonical junction (CJ) mRNA. To be noted: Homo sapiens; Table 5 panel; canonical junction qPCR; compound concentration having 50% response in CJ decrease; read-out: Target C IC50 (decrease in CJ mRNA levels). In a few lines: as §1
The subject of assay [2] is Target C. The assay is described as follows: HiBiT protein abundance assay, Target C (Promega Nano-Glo HiBiT Lytic Detection System, knock-in K562 cell line). The note with it: Homo sapiens, K562, 24 h, HiBiT K562 cell line, 24 hours, top dose 10 μM; read-out: Effect on protein abundance, Target C (IC50 category). The gist of the method: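 Knock-in K562 cells carrying HiBiT-tagged Target C, 10,000 per well, treated 24 h at 37 °C with 10-point threefold dilutions (top 10 μM final, ≤0.25% DMSO). Lytic HiBiT luminescence read; response normalised to unmodified K562 and DMSO controls, four-parameter fit interpolated at 50% for IC50.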
(With HiBiT, luminescence reflects the tagged protein that the partner subunit can reach.)

In general, IC50 refers to the concentration that gives 50% inhibition.

As for `Cc1cn2cc(-c3cc(F)c4c(=O)n([C@@H]5CCNC5)ccc4c3)cc(F)c2n1` (single isomer, unassigned) [Compound 395], the IC50 in the assay with SMN2 mRNA is less than 100 nM; in the assay on Target C [1], greater than 10000 nM; in the assay on Target C [2] it was 1000 to 10000 nM.

In the case of `Cc1cn2cc(-c3cc(F)c4c(=O)n([C@H]5CCNC5)ccc4c3)cc(F)c2n1` (single isomer, unassigned) [Compound 396], the IC50 is less than 100 nM with SMN2 mRNA, greater than 10000 nM in the assay with Target C [1] and 100 to 1000 nM in the assay with Target C [2].

Take `Cc1cn2cc(-c3ccc4c(=O)n([C@@H]5CCCNC5)ccc4c3)cc(F)c2n1` (single isomer, unassigned) [Compound 403]: the figures for the IC50 in the assay on SMN2 mRNA, with Target C [1] and with Target C [2] were less than 100 nM, 1000 to 10000 nM and 1000 to 10000 nM, respectively.

Take `Cc1cn2nc(-c3cc(F)c4c(=O)n([C@@H]5CCNC6(CC6)C5)ccc4c3)cc(C)c2n1` (single isomer, unassigned) [Compound 425]: the IC50 in the assay on SMN2 mRNA, in the assay on Target C [1] and in the assay on Target C [2] was less than 100 nM each time.

On to `Cc1cn2nc(-c3cc(F)c4c(=O)n([C@H]5CCNC6(CC6)C5)ccc4c3)cc(C)c2n1` (single isomer, unassigned) [Compound 426], for which the IC50 in the assay with SMN2 mRNA, in the assay with Target C [1] and with Target C [2] was less than 100 nM in each case.

On to `Cc1cn2nc(-c3ccc4c(=O)n([C@@H]5CCNC6(CC6)C5)ncc4c3)cc(C)c2n1` (stereo in doubt) [Compound 368, 2-[(7R)-4-azaspiro[2.5]octan-7-yl]-6-{2,8-dimethylimidazo[1,2-b]pyridazin-6-yl}phthalazin-1-one], for which the IC50 was less than 100 nM with SMN2 mRNA, 100 to 1000 nM in the assay with Target C [1] and less than 100 nM with Target C [2].

On to `Cc1cn2nc(-c3cc(F)c4c(=O)n(C5CCNC5)ccc4c3)cc(C)c2n1` (stereo in doubt) [Compound 382, (R)-6-(2,8-dimethylimidazo[1,2-b]pyridazin-6-yl)-8-fluoro-2-(pyrrolidin-3-yl)isoquinolin-1(2H)-one], for which the values for the concentration for half-maximal inhibition (IC50) in the assay on SMN2 mRNA, in the assay with Target C [1] and with Target C [2] were less than 100 nM, greater than 10000 nM and 1000 to 10000 nM, respectively.

For the molecule `Cc1cn2nc(-c3cc(F)c4c(=O)n(C5CCNC5)ccc4c3)cc(C)c2n1` (stereo in doubt) [Compound 392, (S)-6-(2,8-dimethylimidazo[1,2-b]pyridazin-6-yl)-8-fluoro-2-(pyrrolidin-3-yl)isoquinolin-1(2H)-one], the IC50 was less than 100 nM in the assay on SMN2 mRNA, 1000 to 10000 nM with Target C [1] and 1000 to 10000 nM in the assay with Target C [2].

For `Cc1cn2nc(-c3cc(C)c4c(=O)n(C5CCNC6(CC6)C5)ccc4c3)cc(C)c2n1` (stereo in doubt) [Compound 397, (S)-6-(2,8-dimethylimidazo[1,2-b]pyridazin-6-yl)-8-methyl-2-(4-azaspiro[2.5]octan-7-yl)isoquinolin-1(2H)-one], the 50% inhibitory concentration (IC50) is less than 100 nM in the assay on SMN2 mRNA, 100 to 1000 nM with Target C [1] and less than 100 nM in the assay on Target C [2].

In the case of `Cc1cn2nc(-c3cc(C)c4c(=O)n(C5CCNC6(CC6)C5)ccc4c3)cc(C)c2n1` (stereo in doubt) [Compound 398, (R)-6-(2,8-dimethylimidazo[1,2-b]pyridazin-6-yl)-8-methyl-2-(4-azaspiro[2.5]octan-7-yl)isoquinolin-1(2H)-one], the IC50 in the assay with SMN2 mRNA, with Target C [1] and in the assay on Target C [2] was less than 100 nM each time.

Turning to `Cc1cn2nc(-c3ccc4c(=O)n(C5CCCNC5)ccc4c3)cc(C)c2n1` (stereo in doubt) [Compound 410, 6-{2,8-dimethylimidazo[1,2-b]pyridazin-6-yl}-2-[(3S)-piperidin-3-yl]isoquinolin-1-one], the IC50 in the assay on SMN2 mRNA was less than 100 nM; in the assay on Target C [1], greater than 10000 nM; in the assay with Target C [2] it was 1000 to 10000 nM.

As to `Cc1cn2nc(-c3ccc4c(=O)n(C5CCCNC5)ccc4c3)cc(C)c2n1` (stereo in doubt) [Compound 411, 6-{2,8-dimethylimidazo[1,2-b]pyridazin-6-yl}-2-[(3R)-piperidin-3-yl]isoquinolin-1-one], the IC50 was 100 to 1000 nM in the assay with SMN2 mRNA, greater than 10000 nM in the assay on Target C [1] and 1000 to 10000 nM in the assay with Target C [2].

`Cc1cn2cc(-c3cc(F)c4c(=O)n(C5CCOC5)cnc4c3)cc(C#N)c2n1` (stereo in doubt) [Compound 499, (R)-6-(5-fluoro-4-oxo-3-(tetrahydrofuran-3-yl)-3,4-dihydroquinazolin-7-yl)-2-methylimidazo[1,2-a]pyridine-8-carbonitrile]: the IC50 in the assay on SMN2 mRNA, in the assay with Target C [1] and in the assay on Target C [2] was 100 to 1000 nM in each case.

For `Cc1cn2cc(-c3cc(F)c4c(=O)n(C5CCOC5)cnc4c3)cc(C#N)c2n1` (stereo in doubt) [Compound 500, (S)-6-(5-fluoro-4-oxo-3-(tetrahydrofuran-3-yl)-3,4-dihydroquinazolin-7-yl)-2-methylimidazo[1,2-a]pyridine-8-carbonitrile], the IC50 with SMN2 mRNA, in the assay with Target C [1] and in the assay with Target C [2] was 100 to 1000 nM throughout.

In the case of `Cn1cc2cc(-n3cnc4cc(C5=CC6CCC(C5)N6)ccc4c3=O)ccc2n1` (stereo not drawn) [Compound 160], the IC50 in the assay with SMN2 mRNA, with Target C [1] and with Target C [2] was greater than 10000 nM throughout.

Regarding `CN1C2C=C(c3ccc4c(=O)n(-c5ccc6nn(C)cc6c5)cnc4c3)CC1CC2` (stereo not drawn) [Compound 161], the IC50 with SMN2 mRNA, with Target C [1] and in the assay on Target C [2] was greater than 10000 nM each time.

In the case of `Cn1cc2cc(-n3cnc4cc(NC5CCNCC5)ccc4c3=O)ccc2n1` [Compound 162], the IC50 with SMN2 mRNA and in the assay on Target C [2] was greater than 10000 nM in each case.

Turning to `CN1CCC(Nc2ccc3c(=O)n(-c4ccc5nn(C)cc5c4)cnc3c2)CC1` [Compound 163], the IC50 in the assay with SMN2 mRNA, in the assay with Target C [1] and in the assay with Target C [2] was greater than 10000 nM in each case.

Regarding `Cn1cc2cc(-n3cnc4cc(C5CCNCC5)ccc4c3=O)ccc2n1` [Compound 172], the IC50 in the assay on SMN2 mRNA, with Target C [1] and in the assay with Target C [2] was greater than 10000 nM each time.

As for `Cc1cc(-c2ccc3c(=O)n(C4CCN(C)CC4)cnc3n2)cc2cn(C)nc12` [Compound 173], the IC50 was 1000 to 10000 nM in the assay on SMN2 mRNA and greater than 10000 nM in the assay with Target C [2].

For `Cc1cc(-c2ccc3c(=O)n(C4CCNCC4)cnc3c2)cc2cn(C)nc12` [Compound 174], the IC50 with SMN2 mRNA is less than 100 nM; in the assay with Target C [2], 100 to 1000 nM.

For the molecule `Cc1cn2cc(-c3cc(N)c4c(=O)n(C5CCNCC5)cnc4c3)cc(C#N)c2n1` [Compound 364, 6-[5-amino-4-oxo-3-(piperidin-4-yl)quinazolin-7-yl]-2-methylimidazo[1,2-a]pyridine-8-carbonitrile], the IC50 with SMN2 mRNA, in the assay on Target C [1] and in the assay on Target C [2] was greater than 10000 nM each time.

Regarding `Cn1cc2c(n1)CCN(c1cc(F)c3c(=O)n(C4CCNCC4)cnc3c1)C2` [Compound 365, 5-fluoro-7-(2-methyl-2,4,6,7-tetrahydro-5H-pyrazolo[4,3-c]pyridin-5-yl)-3-(piperidin-4-yl)quinazolin-4(3H)-one], the figures for the IC50 in the assay with SMN2 mRNA, in the assay on Target C [1] and with Target C [2] were 100 to 1000 nM, greater than 10000 nM and greater than 10000 nM, respectively.

With `Cc1cn2cc(-c3cc(F)c4c(=O)n(C5CCOC5)cnc4c3)cc(C#N)c2n1` (stereo not drawn) [Compound 366, 6-[5-fluoro-4-oxo-3-(oxolan-3-yl)quinazolin-7-yl]-2-methylimidazo[1,2-a]pyridine-8-carbonitrile], the IC50 in the assay with SMN2 mRNA, with Target C [1] and with Target C [2] was 1000 to 10000 nM in each case.

As for `Cc1cn2cc(-c3cc(F)c4c(=O)n(C5CCOCC5)cnc4c3)cc(C#N)c2n1` [Compound 367, 6-[5-fluoro-3-(oxan-4-yl)-4-oxoquinazolin-7-yl]-2-methylimidazo[1,2-a]pyridine-8-carbonitrile], the IC50 in the assay with SMN2 mRNA, with Target C [1] and with Target C [2] was 100 to 1000 nM throughout.

Regarding `Cc1cn2nc(-c3ccc4c(=O)n([C@H]5CCNC6(CC6)C5)ncc4c3)cc(C)c2n1` [Compound 369, 2-[(7S)-4-azaspiro[2.5]octan-7-yl]-6-{2,8-dimethylimidazo[1,2-b]pyridazin-6-yl}phthalazin-1-one], the IC50 in the assay on SMN2 mRNA was less than 100 nM; in the assay with Target C [1] it was less than 100 nM; in the assay on Target C [2], 1000 to 10000 nM.

`Cc1cn2cc(-c3cc(F)c4c(=O)n(C5CCNCC5)ccc4c3)cc(F)c2n1` [Compound 370]: the IC50 was less than 100 nM with SMN2 mRNA, 100 to 1000 nM with Target C [1] and less than 100 nM in the assay on Target C [2].

As to `Cc1cn2nc(-c3ccc4c(=O)n([C@H]5CCNC[C@H]5F)cnc4c3)cc(C)c2n1` [Compound 372], the IC50 was less than 100 nM in the assay on SMN2 mRNA, 1000 to 10000 nM in the assay on Target C [1] and 1000 to 10000 nM in the assay on Target C [2].

For the molecule `Cc1cc(-c2ccc3c(=O)n(C4CCNC5(COC5)C4)cnc3c2)cc2cn(C)nc12` (stereo not drawn) [Compound 375], the 50% inhibitory concentration (IC50) in the assay on SMN2 mRNA, in the assay on Target C [1] and in the assay on Target C [2] was 1000 to 10000 nM throughout.

For the molecule `Cc1cc(-c2ccc3c(=O)n([C@@H]4CCNC[C@H]4F)ncc3c2)cc2cn(C)nc12` [Compound 378], the IC50 was in the range of 100 to 1000 nM in the assay on SMN2 mRNA, 1000 to 10000 nM with Target C [1] and 1000 to 10000 nM in the assay with Target C [2].

For the molecule `Cc1cn2nc(-c3ccc4c(=O)n([C@@H]5CCNC[C@H]5F)ncc4c3)cc(C)c2n1` [Compound 379], the IC50 with SMN2 mRNA is 100 to 1000 nM; with Target C [1], 1000 to 10000 nM; in the assay with Target C [2], 100 to 1000 nM.

(Values after US20250332173A1, “COMPOUNDS AND METHODS FOR MODULATING NUCLEIC ACID SPLICING” (REMIX THERAPEUTICS INC., priority 2021, published 2025).)
